From patent publication US20230416240A1, “KAT6 TARGETING COMPOUNDS” (Prelude Therapeutics Incorporated, priority 2022, published 2023)

How the values were obtained:
[1] = molecular target: T1, KAT6A (Homo sapiens, UniProt Q92794); assay: Western Blot KAT6A Degradation Assessment; assay type: cell-based; conditions: 0.1 μM compound, 24 hours of treatment, HCC1954 cell line, KAT6A normalized to GAPDH and DMSO
T1 construct: These studies were conducted in the HCC1954 cell line which harbors a KAT6A copy number amplification; endogenous in cells; host or cells: HCC1954
T1 sequence (Q92794 whole entry): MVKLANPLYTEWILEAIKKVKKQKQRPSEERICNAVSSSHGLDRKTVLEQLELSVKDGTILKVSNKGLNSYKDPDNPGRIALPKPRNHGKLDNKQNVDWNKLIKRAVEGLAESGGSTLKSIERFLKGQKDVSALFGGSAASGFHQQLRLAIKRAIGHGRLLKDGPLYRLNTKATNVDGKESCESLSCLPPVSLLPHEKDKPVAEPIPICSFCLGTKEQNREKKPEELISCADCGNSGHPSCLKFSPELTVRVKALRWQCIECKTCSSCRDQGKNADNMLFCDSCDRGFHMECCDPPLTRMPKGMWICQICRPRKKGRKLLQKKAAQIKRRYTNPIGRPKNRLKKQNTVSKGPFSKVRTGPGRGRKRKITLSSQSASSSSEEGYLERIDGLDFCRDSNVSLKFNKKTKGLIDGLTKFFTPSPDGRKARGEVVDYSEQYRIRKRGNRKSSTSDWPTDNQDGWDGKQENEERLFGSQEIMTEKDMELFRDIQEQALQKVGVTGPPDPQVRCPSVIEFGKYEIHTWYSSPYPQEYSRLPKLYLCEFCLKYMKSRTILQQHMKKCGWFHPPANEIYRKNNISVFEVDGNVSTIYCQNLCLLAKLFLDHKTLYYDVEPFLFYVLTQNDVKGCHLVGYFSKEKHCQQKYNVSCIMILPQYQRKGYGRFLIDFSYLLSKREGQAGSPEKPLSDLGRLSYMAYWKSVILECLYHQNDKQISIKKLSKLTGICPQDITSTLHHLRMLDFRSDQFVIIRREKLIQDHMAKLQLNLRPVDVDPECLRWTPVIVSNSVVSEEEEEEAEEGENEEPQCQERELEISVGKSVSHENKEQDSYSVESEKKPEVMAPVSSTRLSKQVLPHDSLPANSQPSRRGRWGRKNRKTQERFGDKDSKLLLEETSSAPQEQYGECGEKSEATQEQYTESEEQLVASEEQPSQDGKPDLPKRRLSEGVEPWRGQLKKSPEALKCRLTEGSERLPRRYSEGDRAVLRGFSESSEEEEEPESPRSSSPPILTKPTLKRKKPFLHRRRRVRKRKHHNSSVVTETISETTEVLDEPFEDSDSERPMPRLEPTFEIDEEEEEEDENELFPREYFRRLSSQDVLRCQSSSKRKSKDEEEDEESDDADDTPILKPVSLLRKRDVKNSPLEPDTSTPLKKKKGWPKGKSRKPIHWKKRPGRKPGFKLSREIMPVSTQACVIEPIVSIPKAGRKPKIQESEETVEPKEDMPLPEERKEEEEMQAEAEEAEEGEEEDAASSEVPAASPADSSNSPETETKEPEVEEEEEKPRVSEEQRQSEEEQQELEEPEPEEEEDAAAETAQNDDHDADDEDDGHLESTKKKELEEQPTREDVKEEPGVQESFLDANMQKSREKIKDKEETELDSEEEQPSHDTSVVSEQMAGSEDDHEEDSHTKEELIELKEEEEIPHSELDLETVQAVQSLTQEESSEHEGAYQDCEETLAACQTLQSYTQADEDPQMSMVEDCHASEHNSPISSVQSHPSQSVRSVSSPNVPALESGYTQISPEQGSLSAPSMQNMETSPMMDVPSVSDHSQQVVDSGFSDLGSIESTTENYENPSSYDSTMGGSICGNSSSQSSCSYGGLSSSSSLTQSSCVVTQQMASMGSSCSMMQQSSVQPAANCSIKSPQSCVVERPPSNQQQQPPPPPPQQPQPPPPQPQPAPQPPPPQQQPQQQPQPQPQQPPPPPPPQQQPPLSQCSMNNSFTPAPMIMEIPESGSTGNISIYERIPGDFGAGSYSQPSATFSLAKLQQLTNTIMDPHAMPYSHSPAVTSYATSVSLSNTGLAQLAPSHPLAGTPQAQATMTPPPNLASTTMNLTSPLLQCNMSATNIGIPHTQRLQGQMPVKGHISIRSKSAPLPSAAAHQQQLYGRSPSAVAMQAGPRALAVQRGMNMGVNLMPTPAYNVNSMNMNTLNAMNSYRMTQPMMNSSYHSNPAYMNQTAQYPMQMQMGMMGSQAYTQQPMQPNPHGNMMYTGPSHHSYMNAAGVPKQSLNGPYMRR
Description: The activity of compounds was evaluated by measuring KAT6A protein levels as a readout of KAT6A degradation ability using western blot. These studies were conducted in the HCC1954 cell line which harbors a KAT6A copy number amplification. Cells were maintained in a 37° C. incubator at 5% CO2 in the following media: RPMI 1640, ATCC© Modification (Gibco, A10491-01) supplemented with 10% v/v FBS (Gibco, 26140-079) and 1% penicillin streptomycin (Gibco, 15140-122). Cells were seeded in 6-well plates at a density of 300,000 cells/well and allowed to attach overnight in an incubator. Compounds dissolved in DMSO were prepared at 1000× the desired final concentration such that the final percentage of DMSO was 0.1%. After 24 hours of treatment, cells were washed with phosphate buffered saline (PBS) (Corning, 21-040-CV), detached with trypsin-EDTA (Gibco, #25200-056), and pelleted in complete RPMI media in a microcentrifuge for 5 min at 1500 rpm. Protein was extracted from cell pellets by re-suspending in 15 uL PBS before adding 45 uL of lysis buffer composed of 4% SDS, 1× protease and phosphatase inhibitors, and 1 mM PMSF (Cell Signaling Technology, #8553S). Lysates were transferred to homogenizer columns (Omega Biotek, #HCR003) and centrifuged for 1.5 min at 12,000 rpm.
Homogenized lysates were quantified by BCA assay (ThermoScientific, Pierce BCA Protein Assay, #23223, #23224) as per manufacturer instructions. Samples were then diluted in 4× Laemmli buffer (Biorad, #1610747) to a 1× solution which was boiled at 95° C. for 5 minutes. To assess KAT6A protein expression, samples were run on 26 well gels (Biorad, 4-15% Criterion TGX Precast gels, #5671085) at 120V for approximately 1 hour. Protein was transferred to low-fluorescence PVDF membranes (Millipore Sigma, #IPFL00010) using Trans-Blot Turbo Transfer System (Biorad). Membranes were then probed with KAT6A (Cell Signaling Technology, #78462) and GAPDH (Cell Signaling Technology, #5174S) primary, and fluorescently tagged secondary antibodies (LI-COR, IRDye 800CW Goat anti-rabbit #926-32211; IRDye 680RD Goat anti-mouse #926-68070) at manufacturer recommended conditions using the iBind Flex western device (Thermofisher, SLF2000). Membranes were washed briefly in water and scanned with a LI-COR Odyssey CLx. Quantification of bands was assessed using Image Studio Ver 5.2. to normalize KAT6A expression to GAPDH loading controls before representing KAT6A expression as a percentage of that observed in DMSO.

[2] = molecular target: T2, HiBit tagged KAT6A (Homo sapiens, UniProt Q92794); assay: HiBit KAT6A Degradation Assessment; assay type: cell-based; conditions: HeLa cells with HiBit tagged KAT6A, 18 h of treatment, 9-point serial dilution
T2 construct: host or cells: HeLa
T2 sequence (Q92794 whole entry): as above
Description: The degradation activity of compounds was evaluated by measuring levels of KAT6A protein using the HiBiT system. These studies were conducted in HeLa cells with a HiBit tagged KAT6A. Cells were maintained in a 37° C. incubator at 5% CO2 in EMEM (ATCC, 30-2003) supplemented with 10% v/v FBS (Gibco, 26140-079) and 1% penicillin streptomycin. Cells were seeded in 384-well plates at a density of 2,000 cells/well. Compounds dissolved in DMSO were added in 9-point serial dilution. After 18 h of treatment, KAT6A levels were measured using the Nano-Glo® HiBiT Lytic Detection System (Promega catalog number N3030) per manufacturer's instructions. Luminescence signal was measured with a multimode plate reader (Envision 2105, Perkin Elmer). Luminescence values were normalized to background and DMSO controls to quantify KAT6A for each condition. Results were analyzed, and DC50 and Dmax values obtained using a four-parameter logistic curve fit.

SMILES	inhibition at 0.1 µM [1]	DC50 [2]	Dmax [2]
COc1cc(Cn2cccn2)cc2onc(NS(=O)(=O)c3cccc(N4CCN(CC5CCN(c6ccc7c(c6)C(=O)N(C6CCC(=O)NC6=O)C7=O)C5)CC4)c3)c12 (centres unmarked) [Example 1, N-(6-((1H-Pyrazol-1-yl)methyl)-4-methoxybenzo[d]isoxazol-3-yl)-3-(4-((1-(2-(2,6-dioxopiperidin-3-yl)-1,3-dioxoisoindolin-5-yl)pyrrolidin-3-yl)methyl)piperazin-1-yl)benzenesulfonamide]	50 to 75%	100 to 1000 nM	50 to 75%
COc1c(N2CC3(CCN(C[C@@H]4CCN(c5ccc6c(c5)C(=O)N(C5CCC(=O)NC5=O)C6=O)C4)CC3)C2)cccc1S(=O)(=O)Nc1noc2cc(Cn3cccn3)cc(OC)c12 (stereo partly drawn) [Example 30, N-(6-((1H-pyrazol-1-yl)methyl)-4-methoxybenzo[d]isoxazol-3-yl)-3-(7-(((3S)-1-(2-(2,6-dioxopiperidin-3-yl)-1,3-dioxoisoindolin-5-yl)pyrrolidin-3-yl)methyl)-2,7-diazaspiro[3.5]nonan-2-yl)-2-methoxybenzenesulfonamide]		< 10 nM	> 75%
COc1cc(Cn2cccn2)cc2onc(NS(=O)(=O)c3cccc(N4CCN(CC5CCN(c6cccc7c6C(=O)N(C6CCC(=O)NC6=O)C7=O)C5)CC4)c3)c12 (centres unmarked) [Example 31, N-(6-((1H-Pyrazol-1-yl)methyl)-4-methoxybenzo[d]isoxazol-3-yl)-3-(4-((1-(2-(2,6-dioxopiperidin-3-yl)-1,3-dioxoisoindolin-4-yl)pyrrolidin-3-yl)methyl)piperazin-1-yl)benzenesulfonamide]		100 to 1000 nM	50 to 75%
COc1cc(Cn2cccn2)cc2onc(NS(=O)(=O)c3cccc(N4CCN(CC5CCN(c6cccc7c6C(=O)N(C6CCC(=O)NC6=O)C7=O)CC5)CC4)c3)c12 (centres unmarked) [Example 32, 3-[4-[[1-[2-(2,6-Dioxopiperidin-3-yl)-1,3-dioxoisoindol-4-yl]piperidin-4-yl]methyl]piperazin-1-yl]-N-[4-methoxy-6-(pyrazol-1-ylmethyl)-1,2-benzoxazol-3-yl]benzenesulfonamide]		10 to 100 nM	50 to 75%
COc1cc(Cn2cccn2)cc2onc(NS(=O)(=O)c3cccc(N4CC5(CCN(CC6CCN(c7ccc8c(c7)CN(C7CCC(=O)NC7=O)C8=O)C6)CC5)C4)c3)c12 (centres unmarked) [Example 33, N-(6-((1H-pyrazol-1-yl)methyl)-4-methoxybenzo[d]isoxazol-3-yl)-3-(7-((1-(2-(2,6-dioxopiperidin-3-yl)-1-oxoisoindolin-5-yl)pyrrolidin-3-yl)methyl)-2,7-diazaspirononan-2-yl)benzenesulfonamide]		< 10 nM	> 75%
COc1cc(Cn2cccn2)cc2onc(NS(=O)(=O)c3cccc(N4CC5(CCN(CC6CCN(c7ccc8c(c7)C(=O)N(C7CCC(=O)NC7=O)C8)C6)CC5)C4)c3)c12 (centres unmarked) [Example 34, N-(6-((1H-pyrazol-1-yl)methyl)-4-methoxybenzo[d]isoxazol-3-yl)-3-(7-((1-(2-(2,6-dioxopiperidin-3-yl)-3-oxoisoindolin-5-yl)pyrrolidin-3-yl)methyl)-2,7-diazaspirononan-2-yl)benzenesulfonamide]		< 10 nM	50 to 75%
COc1cc(Cn2cccn2)cc2onc(NS(=O)(=O)c3cccc(N4CC5(CCN(C[C@H]6CCN(c7ccc8c(c7)C(=O)N(C7CCC(=O)NC7=O)C8=O)C6)CC5)C4)c3)c12 (stereo partly drawn) [Example 35, N-(6-((1H-pyrazol-1-yl)methyl)-4-methoxybenzo[d]isoxazol-3-yl)-3-(7-(((3R)-1-(2-(2,6-dioxopiperidin-3-yl)-1,3-dioxoisoindolin-5-yl)pyrrolidin-3-yl)methyl)-2,7-diazaspiro[3.5]nonan-2-yl)benzenesulfonamide]		< 10 nM	50 to 75%
COc1cc(Cn2cccn2)cc2onc(NS(=O)(=O)c3cccc(N4CCC(NC[C@@H]5CCN(c6ccc7c(c6)CN([C@H]6CCC(=O)NC6=O)C7=O)C5)CC4)c3)c12 [Example 36, N-(6-((1H-pyrazol-1-yl)methyl)-4-methoxybenzo[d]isoxazol-3-yl)-3-(4-((((S)-1-(2-((S)-2,6-dioxopiperidin-3-yl)-1-oxoisoindolin-5-yl)pyrrolidin-3-yl)methyl)amino)piperidin-1-yl)benzenesulfonamide]		10 to 100 nM	> 75%
COc1cc(Cn2cccn2)cc2onc(NS(=O)(=O)c3cccc(N(C)C4CCN(C[C@@H]5CCN(c6ccc7c(c6)CN([C@H]6CCC(=O)NC6=O)C7=O)C5)CC4)c3)c12 [Example 37, N-(6-((1H-Pyrazol-1-yl)methyl)-4-methoxybenzo[d]isoxazol-3-yl)-3-((1-(((S)-1-(2-((S)-2,6-dioxopiperidin-3-yl)-1-oxoisoindolin-5-yl)pyrrolidin-3-yl)methyl)piperidin-4-yl)(methyl)amino)benzenesulfonamide]		< 10 nM	50 to 75%
COc1cc(Cn2cccn2)cc2onc(NS(=O)(=O)c3cccc(NC4CCN(C[C@@H]5CCN(c6ccc7c(c6)CN([C@H]6CCC(=O)NC6=O)C7=O)C5)CC4)c3)c12 [Example 38, N-(6-((1H-Pyrazol-1-yl)methyl)-4-methoxybenzo[d]isoxazol-3-yl)-3-((1-(((S)-1-(2-((S)-2,6-dioxopiperidin-3-yl)-1-oxoisoindolin-5-yl)pyrrolidin-3-yl)methyl)piperidin-4-yl)amino)benzenesulfonamide]		10 to 100 nM	50 to 75%
COc1cc(Cn2cccn2)cc2onc(NS(=O)(=O)c3cccc(N4CCC5(CCN(C[C@@H]6CCN(c7ccc8c(c7)CN(C7CCC(=O)NC7=O)C8=O)C6)CC5)CC4)c3)c12 (stereo partly drawn) [Example 39, N-(6-((1H-Pyrazol-1-yl)methyl)-4-methoxybenzo[d]isoxazol-3-yl)-3-(9-(((3S)-1-(2-(2,6-dioxopiperidin-3-yl)-1-oxoisoindolin-5-yl)pyrrolidin-3-yl)methyl)-3,9-diazaspiro[5.5]undecan-3-yl)benzenesulfonamide]		< 10 nM	> 75%
COc1cc(Cn2cccn2)cc2onc(NS(=O)(=O)c3cccc(N4C[C@@H]5CN(C[C@@H]6CCN(c7ccc8c(c7)CN([C@H]7CCC(=O)NC7=O)C8=O)C6)C[C@H]5C4)c3)c12 [Example 40, N-(6-((1H-Pyrazol-1-yl)methyl)-4-methoxybenzo[d]isoxazol-3-yl)-3-((3aS,6aS)-5-(((S)-1-(2-((S)-2,6-dioxopiperidin-3-yl)-1-oxoisoindolin-5-yl)pyrrolidin-3-yl)methyl)hexahydropyrrolo[3,4-c]pyrrol-2(1H)-yl)benzenesulfonamide]		< 10 nM	> 75%
COc1ccc(N2CC3(CCN(CC4CCN(c5ccc6c(c5)C(=O)N(C5CCC(=O)NC5=O)C6=O)C4)CC3)C2)cc1S(=O)(=O)Nc1noc2cc(Cn3cccn3)cc(OC)c12 (centres unmarked) [Example 41, N-(6-((1H-pyrazol-1-yl)methyl)-4-methoxybenzo[d]isoxazol-3-yl)-5-(7-((1-(2-(2,6-dioxopiperidin-3-yl)-1,3-dioxoisoindolin-5-yl)pyrrolidin-3-yl)methyl)-2,7-diazaspiro[3.5]nonan-2-yl)-2-methoxybenzenesulfonamide]		< 10 nM	50 to 75%
COc1cc(Cn2cccn2)cc2onc(NS(=O)(=O)c3cccc(N4CCN(CC5CN(c6ccc7c(c6)C(=O)N(C6CCC(=O)NC6=O)C7=O)C5)CC4)c3)c12 (centres unmarked) [Example 42, N-(6-((1H-pyrazol-1-yl)methyl)-4-methoxybenzo[d]isoxazol-3-yl)-3-(4-((1-(2-(2,6-dioxopiperidin-3-yl)-1,3-dioxoisoindolin-5-yl)azetidin-3-yl)methyl)piperazin-1-yl)benzenesulfonamide]		10 to 100 nM	50 to 75%
